Values quoted from earlier work as cited in US11267839B2, “Crystalline forms of LNT” (GLYCOM A/S, priority 2015, dated 2022).

Settings: prior-art crystalline LNT from aqueous ethanol, after drying

weight taken back when stored in air (hygroscopic): around 8 % of its weight
SMILES: CC(=O)N[C@H]1[C@H](O[C@H]2[C@@H](O)[C@@H](CO)O[C@@H](O[C@H]3[C@H](O)[C@@H](O)C(O)O[C@@H]3CO)[C@@H]2O)O[C@H](CO)[C@@H](O)[C@@H]1O[C@@H]1O[C@H](CO)[C@H](O)[C@H](O)[C@H]1O (stereo partly shown) [LNT, Galpβ1-3GlcNAcpβ1-3Galpβ1-4Glc]
